Source: article PMC5738391, “Three classes of ligands each bind to distinct sites on the orphan G protein-coupled receptor GPR84” (Scientific Reports, 2017)
Blank lines part the entries; values can stand above or below the molecule they belong to.

Assays:
[1] = molecular target: T1, human GPR84 (FLAG-hGPR84-eYFP) (Homo sapiens, UniProt Q9NQS5); experiment: [35S]GTPγS binding, membranes of cells expressing FLAG-hGPR84-eYFP; type: biochemical
T1 construct: expressed in transfected cells
Method: Membranes were generated from Flp-In T-REx HEK293 cells treated with 100 ng/mL doxycycline to induce expression of the receptor construct of interest. Cells were washed with ice-cold phosphate-buffered saline, removed from dishes by scraping and centrifuged at 3000 rpm for 5 min at 4 °C. Pellets were resuspended in TE buffer (10 mM Tris-HCl, 0.1 mM EDTA; pH 7.5) containing a protease inhibitor mixture (Roche Applied Science, West Sussex, UK) and homogenized with a 5 ml hand-held homogenizer. This material was centrifuged at 1500 rpm for 5 min at 4 °C and the supernatant was further centrifuged at 50000 rpm for 45 min at 4 °C. The resulting pellet was resuspended in TE buffer and protein content was assessed using a BCA protein assay kit (Pierce, Fisher Scientific, Loughborough, UK).
The reaction was then initiated with addition of [^35S]GTPγS (50 nCi per tube), and the reaction was terminated after 45 minutes incubation at 30 °C by rapid filtration through GF/C glass filters using a 24-well Brandel cell harvester (Alpha Biotech, Glasgow, UK). […] Dried filters were added to 3 mL of Ultima Gold^TM XR (PerkinElmer Life Sciences, Beaconsfield, UK) and [^35S]GTPγS binding was determined by liquid scintillation spectrometry.
All data are presented as means ± SEM of at least three independent experiments. Data analysis and curve fitting was carried out using the GraphPad Prism software package version 5.0b (GraphPad, San Diego). […] In case of inhibition experiments with antagonists an equivalent analysis was followed to fit an inverse sigmoidal curve. To perform the statistical analysis of curve parameters, data from multiple experiments were fitted independently and resulting curve fit values were analysed with indicated tests. For radioligand binding data, saturation binding curves were generated by fitting the specific binding, which was obtained by subtracting non-specific from total binding, to a one site specific binding model that allows calculation of Kd values for the radioligand at wild type and mutant receptors. To determine affinity of unlabelled ligands, data obtained in displacement assays were fit to an inverse three parameter sigmoidal curve constrained by radioligand affinity and concentration to allow for Ki calculation.

[2] = molecular target: GPR84-Cys^352Ile Gαi2 fusion protein (Homo sapiens, UniProt Q9NQS5); experiment: [3H]G9543 radioligand binding (saturation and displacement), GPR84-Cys352Ile Gαi2 fusion protein; design: Cys352Ile Gαi2 (fusion partner, same polypeptide); expressed in transfected cells; host or cells: membranes of Flp-In T-REx 293 cells, doxycycline-induced; settings: displacement assay
Method: [^3H]G9543 is an analog of compounds 104, 107 and 161 with the same characteristic 2-(substituted-alkoxy)-9-substituted-6,7-dihydro-pyrimido[6,1-a]isoquinolin-4-one chemotype. […] Binding was initiated by the addition of membranes (5 µg of protein per tube). All assays were performed at 25 °C for 1 h before termination by the addition of ice-cold phosphate-buffered saline and vacuum filtration through GF/C glass filters using a 24-well Brandel cell harvester (Alpha Biotech, Glasgow, UK). Each reaction tube was washed three times with ice-cold PBS. The filters were allowed to dry for 2–3 h and then placed in 3 ml of Ultima Gold^TM XR. Radioactivity was quantified by liquid scintillation spectrometry. Specific binding was defined as the difference between binding detected in the presence and absence of 1 µM compound 104.
All data are presented as means ± SEM of at least three independent experiments. Data analysis and curve fitting was carried out using the GraphPad Prism software package version 5.0b (GraphPad, San Diego). For functional assays the concentration-response data were plotted on a log axis, with the untreated vehicle control plotted at 1 log unit lower than the lowest ligand concentration, and fitted to a three parameter sigmoidal curve with the Hill slope constrained to equal 1. In case of inhibition experiments with antagonists an equivalent analysis was followed to fit an inverse sigmoidal curve. To perform the statistical analysis of curve parameters, data from multiple experiments were fitted independently and resulting curve fit values were analysed with indicated tests. For radioligand binding data, saturation binding curves were generated by fitting the specific binding, which was obtained by subtracting non-specific from total binding, to a one site specific binding model that allows calculation of Kd values for the radioligand at wild type and mutant receptors. To determine affinity of unlabelled ligands, data obtained in displacement assays were fit to an inverse three parameter sigmoidal curve constrained by radioligand affinity and concentration to allow for Ki calculation.

[3] = system: patients with ulcerative colitis; design: method as in doi:10.1093/ecco-jcc/jjx002.734; settings: cited from earlier work
wild type GPR84 = system: wild type GPR84; design: method as in PMID 25425658; settings: cited from earlier work

Sequence of GPR84-Cys^352Ile Gαi2 fusion protein (Q9NQS5 2-396): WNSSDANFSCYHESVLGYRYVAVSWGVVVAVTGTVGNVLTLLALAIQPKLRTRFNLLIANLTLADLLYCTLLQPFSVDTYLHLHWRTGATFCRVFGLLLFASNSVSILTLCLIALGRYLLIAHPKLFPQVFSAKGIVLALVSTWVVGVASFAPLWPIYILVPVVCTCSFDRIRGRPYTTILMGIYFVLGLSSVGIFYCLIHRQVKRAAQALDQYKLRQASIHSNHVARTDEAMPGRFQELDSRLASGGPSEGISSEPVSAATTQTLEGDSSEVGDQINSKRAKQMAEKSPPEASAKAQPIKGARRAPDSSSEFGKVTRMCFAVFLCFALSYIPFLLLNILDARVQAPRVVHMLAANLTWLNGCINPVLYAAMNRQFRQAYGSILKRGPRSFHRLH
T1 sequence (Q9NQS5 whole entry): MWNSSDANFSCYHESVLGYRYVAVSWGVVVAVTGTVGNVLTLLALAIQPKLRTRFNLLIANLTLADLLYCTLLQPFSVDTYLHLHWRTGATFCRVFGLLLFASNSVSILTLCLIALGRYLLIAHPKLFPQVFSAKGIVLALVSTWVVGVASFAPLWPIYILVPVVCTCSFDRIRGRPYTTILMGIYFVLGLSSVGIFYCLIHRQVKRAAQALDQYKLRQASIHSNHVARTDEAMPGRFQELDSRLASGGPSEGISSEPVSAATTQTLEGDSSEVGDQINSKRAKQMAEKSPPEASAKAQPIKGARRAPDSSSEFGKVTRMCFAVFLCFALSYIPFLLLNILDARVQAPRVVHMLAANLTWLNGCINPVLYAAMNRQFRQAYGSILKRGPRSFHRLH

ability to limit [35S]GTPγS binding induced by EC80 concentrations of C10 (50 μM), embelin (3 μM) and DIM (5 μM) [1]: more potent than 161
ability to compete with [3H]G9543 binding [2]: competed fully and effectively
Ki ([2]; read-out: pKi, competition with [3H]G9543 (converted)): 1.86 nM
Structure (SMILES): O=c1nc(OC[C@H]2COCCO2)cc2n1CCc1cc(OCc3noc(C4CC4)n3)ccc1-2 [Compound 104, 9-(5-cyclopropyl-[1,2,4]oxadiazol-3-ylmethoxy)-2-((R)-1-[1,4]dioxan-2-ylmethoxy)-6,7-dihydro-pyrimido[6,1-a]isoquinolin-4-one]

Structure (SMILES): O=c1nc(OC[C@@H]2COCCO2)cc2n1CCc1cc(C#CC3CC3)ccc1-2 [GLPG1205]
efficacy in patients with ulcerative colitis ([3]; 12 weeks of chronic dosing): did not show efficacy
safety and tolerability ([3]; patients with ulcerative colitis): safe and tolerable

Structure (SMILES): CCCCCCCCCCN [decylamine]
response of wild type GPR84 (wild type GPR84): failed to respond
